In ChEMBL document CHEMBL1201862, “PubChem BioAssay data set” (2004):
The source made the active and inactive calls.

Key:
Bcl-2-like protein 10 = target: T1, Bcl-2-like protein 10 (Homo sapiens, UniProt Q9HD36); assay: displacers of TR3 peptide from Bcl-B, primary screen, selectivity assay for Bfl-1 inhibitor project, biochemical, fluorescence polarization, FITC-TR3 peptide (AID 748);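 note: fluorescence polarization from a fluorescein-labelled TR3 peptide binding purified Bcl-B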
T1 sequence (Q9HD36 whole entry): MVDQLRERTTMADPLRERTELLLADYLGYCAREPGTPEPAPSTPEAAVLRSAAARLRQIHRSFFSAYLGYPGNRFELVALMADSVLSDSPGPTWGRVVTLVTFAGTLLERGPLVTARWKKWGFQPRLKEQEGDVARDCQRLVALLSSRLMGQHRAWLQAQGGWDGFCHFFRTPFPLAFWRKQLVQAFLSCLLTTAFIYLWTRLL

Estrogen receptor beta [1] = target: T2, Estrogen receptor beta (Homo sapiens, UniProt Q92731);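 note: recombinant ER-beta bound to coactivator SRC1 peptide in presence of estradiol agonist; inhibitors block coactivator peptide binding and lower the FRET signal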
T2 sequence (Q92731 whole entry): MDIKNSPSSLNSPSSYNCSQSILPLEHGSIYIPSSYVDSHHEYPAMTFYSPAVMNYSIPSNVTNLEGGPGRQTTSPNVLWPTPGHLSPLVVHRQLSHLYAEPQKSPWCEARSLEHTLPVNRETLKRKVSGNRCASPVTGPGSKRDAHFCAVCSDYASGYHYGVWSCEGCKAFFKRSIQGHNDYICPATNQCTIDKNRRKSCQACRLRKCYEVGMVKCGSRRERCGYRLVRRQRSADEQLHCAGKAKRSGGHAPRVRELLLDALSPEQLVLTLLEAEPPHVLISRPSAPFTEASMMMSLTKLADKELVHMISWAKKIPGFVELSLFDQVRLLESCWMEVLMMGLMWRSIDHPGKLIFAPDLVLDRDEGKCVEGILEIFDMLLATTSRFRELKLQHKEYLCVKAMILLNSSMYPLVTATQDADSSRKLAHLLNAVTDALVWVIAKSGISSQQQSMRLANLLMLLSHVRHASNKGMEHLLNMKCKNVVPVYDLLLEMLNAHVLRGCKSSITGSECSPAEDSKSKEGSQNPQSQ

Estrogen receptor beta [2] = target: T2, Estrogen receptor beta; assay: ERβ–SRC-3 coactivator interaction inhibitors, confirmation, orthogonal assay, biochemical, ELISA, streptavidin-HRP readout (AID 1060)
Estrogen receptor = target: T3, Estrogen receptor (Homo sapiens, UniProt P03372);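 note: potency for inhibiting coactivator peptide recruitment to the receptor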
T3 sequence (P03372 whole entry): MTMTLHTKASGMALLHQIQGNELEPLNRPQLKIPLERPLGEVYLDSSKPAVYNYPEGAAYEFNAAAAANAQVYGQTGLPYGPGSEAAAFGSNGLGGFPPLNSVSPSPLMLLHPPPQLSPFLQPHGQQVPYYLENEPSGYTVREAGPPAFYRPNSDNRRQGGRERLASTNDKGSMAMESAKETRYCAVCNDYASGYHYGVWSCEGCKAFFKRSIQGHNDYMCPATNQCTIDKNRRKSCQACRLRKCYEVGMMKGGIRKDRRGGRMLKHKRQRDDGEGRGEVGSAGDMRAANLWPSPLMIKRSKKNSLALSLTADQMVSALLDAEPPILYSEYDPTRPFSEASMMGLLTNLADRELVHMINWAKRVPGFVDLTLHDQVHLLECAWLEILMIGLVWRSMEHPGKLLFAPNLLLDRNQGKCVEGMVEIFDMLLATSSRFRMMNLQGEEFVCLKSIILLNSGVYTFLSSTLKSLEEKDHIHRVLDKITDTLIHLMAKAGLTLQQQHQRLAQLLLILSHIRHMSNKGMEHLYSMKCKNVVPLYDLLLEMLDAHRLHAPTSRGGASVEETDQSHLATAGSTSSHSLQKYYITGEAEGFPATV

[3] = target: Peroxisome proliferator-activated receptor gamma/Nuclear receptor coactivator 3 (Homo sapiens, UniProt P37231); assay type: functional;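 note: agonist potency for raising coactivator recruitment to the receptor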
Peroxisome proliferator-activated receptor gamma/Nuclear receptor coactivator 3, sequence (P37231 whole entry): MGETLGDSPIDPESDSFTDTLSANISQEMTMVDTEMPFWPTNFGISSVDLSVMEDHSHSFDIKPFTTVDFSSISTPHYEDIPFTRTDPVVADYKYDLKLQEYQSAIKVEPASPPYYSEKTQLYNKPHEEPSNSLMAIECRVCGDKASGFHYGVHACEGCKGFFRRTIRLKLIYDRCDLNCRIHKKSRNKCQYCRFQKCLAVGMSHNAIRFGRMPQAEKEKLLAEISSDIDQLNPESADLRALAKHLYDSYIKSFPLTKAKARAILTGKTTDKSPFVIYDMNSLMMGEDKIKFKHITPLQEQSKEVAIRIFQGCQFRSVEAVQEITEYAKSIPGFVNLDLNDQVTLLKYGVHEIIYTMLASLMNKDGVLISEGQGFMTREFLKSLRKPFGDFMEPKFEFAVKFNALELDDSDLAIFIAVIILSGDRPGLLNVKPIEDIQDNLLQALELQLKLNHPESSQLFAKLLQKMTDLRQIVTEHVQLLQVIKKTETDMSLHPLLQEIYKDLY
Peroxisome proliferator-activated receptor gamma/Nuclear receptor coactivator 3, sequence (Q9Y6Q9 whole entry, further chain): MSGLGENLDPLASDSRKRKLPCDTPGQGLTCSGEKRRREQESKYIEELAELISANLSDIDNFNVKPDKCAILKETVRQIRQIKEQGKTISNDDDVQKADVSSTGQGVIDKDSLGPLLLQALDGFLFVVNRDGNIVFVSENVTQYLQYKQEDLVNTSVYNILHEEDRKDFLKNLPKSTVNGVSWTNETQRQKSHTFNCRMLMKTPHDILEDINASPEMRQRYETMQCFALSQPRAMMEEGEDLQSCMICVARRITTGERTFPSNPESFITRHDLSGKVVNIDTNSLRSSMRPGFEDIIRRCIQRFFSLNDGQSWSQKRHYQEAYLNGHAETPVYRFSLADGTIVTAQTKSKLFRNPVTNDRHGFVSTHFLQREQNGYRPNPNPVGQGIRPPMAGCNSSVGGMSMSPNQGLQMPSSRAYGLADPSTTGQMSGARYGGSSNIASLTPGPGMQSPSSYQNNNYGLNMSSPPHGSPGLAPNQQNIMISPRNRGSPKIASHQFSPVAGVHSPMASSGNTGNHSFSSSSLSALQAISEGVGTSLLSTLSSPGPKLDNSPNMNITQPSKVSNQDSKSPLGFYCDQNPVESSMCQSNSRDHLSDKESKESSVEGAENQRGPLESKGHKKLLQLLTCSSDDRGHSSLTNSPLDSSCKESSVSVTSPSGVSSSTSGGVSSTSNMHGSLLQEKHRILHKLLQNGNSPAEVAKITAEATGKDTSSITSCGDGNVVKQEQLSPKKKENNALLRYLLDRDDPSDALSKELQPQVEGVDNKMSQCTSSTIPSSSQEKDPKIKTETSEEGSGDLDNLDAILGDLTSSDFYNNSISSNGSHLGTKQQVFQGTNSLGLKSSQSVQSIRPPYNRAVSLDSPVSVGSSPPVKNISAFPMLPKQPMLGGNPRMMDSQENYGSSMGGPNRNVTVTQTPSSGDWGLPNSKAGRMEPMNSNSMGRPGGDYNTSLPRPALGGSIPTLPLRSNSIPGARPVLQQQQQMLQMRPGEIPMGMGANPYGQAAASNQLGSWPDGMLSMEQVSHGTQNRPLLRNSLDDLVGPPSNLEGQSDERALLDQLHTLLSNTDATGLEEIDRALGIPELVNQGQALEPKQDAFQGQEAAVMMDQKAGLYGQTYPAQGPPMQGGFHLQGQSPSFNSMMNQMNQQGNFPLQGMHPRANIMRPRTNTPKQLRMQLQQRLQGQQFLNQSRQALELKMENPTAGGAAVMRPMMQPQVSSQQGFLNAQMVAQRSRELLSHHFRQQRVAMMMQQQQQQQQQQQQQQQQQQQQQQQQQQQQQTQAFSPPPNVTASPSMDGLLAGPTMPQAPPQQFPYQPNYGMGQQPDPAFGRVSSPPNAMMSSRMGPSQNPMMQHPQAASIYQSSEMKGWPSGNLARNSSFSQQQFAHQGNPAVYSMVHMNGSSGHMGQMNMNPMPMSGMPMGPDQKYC

[4] = target: Peroxisome proliferator-activated receptor gamma/Nuclear receptor coactivator 1 (Homo sapiens, UniProt P37231); assay type: functional;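 note: agonist potency as compounds enhance coactivator SRC-1 recruitment to PPARgamma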
[5] = target: Peroxisome proliferator-activated receptor gamma/Nuclear receptor coactivator 2 (Homo sapiens, UniProt P37231); assay type: functional;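 note: agonist potency for raising coactivator recruitment to the receptor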
Peroxisome proliferator-activated receptor gamma/Nuclear receptor coactivator 2, sequence (P37231 whole entry): as the sequence (P37231 whole entry) above
Peroxisome proliferator-activated receptor gamma/Nuclear receptor coactivator 2, sequence (Q15596 whole entry, further chain): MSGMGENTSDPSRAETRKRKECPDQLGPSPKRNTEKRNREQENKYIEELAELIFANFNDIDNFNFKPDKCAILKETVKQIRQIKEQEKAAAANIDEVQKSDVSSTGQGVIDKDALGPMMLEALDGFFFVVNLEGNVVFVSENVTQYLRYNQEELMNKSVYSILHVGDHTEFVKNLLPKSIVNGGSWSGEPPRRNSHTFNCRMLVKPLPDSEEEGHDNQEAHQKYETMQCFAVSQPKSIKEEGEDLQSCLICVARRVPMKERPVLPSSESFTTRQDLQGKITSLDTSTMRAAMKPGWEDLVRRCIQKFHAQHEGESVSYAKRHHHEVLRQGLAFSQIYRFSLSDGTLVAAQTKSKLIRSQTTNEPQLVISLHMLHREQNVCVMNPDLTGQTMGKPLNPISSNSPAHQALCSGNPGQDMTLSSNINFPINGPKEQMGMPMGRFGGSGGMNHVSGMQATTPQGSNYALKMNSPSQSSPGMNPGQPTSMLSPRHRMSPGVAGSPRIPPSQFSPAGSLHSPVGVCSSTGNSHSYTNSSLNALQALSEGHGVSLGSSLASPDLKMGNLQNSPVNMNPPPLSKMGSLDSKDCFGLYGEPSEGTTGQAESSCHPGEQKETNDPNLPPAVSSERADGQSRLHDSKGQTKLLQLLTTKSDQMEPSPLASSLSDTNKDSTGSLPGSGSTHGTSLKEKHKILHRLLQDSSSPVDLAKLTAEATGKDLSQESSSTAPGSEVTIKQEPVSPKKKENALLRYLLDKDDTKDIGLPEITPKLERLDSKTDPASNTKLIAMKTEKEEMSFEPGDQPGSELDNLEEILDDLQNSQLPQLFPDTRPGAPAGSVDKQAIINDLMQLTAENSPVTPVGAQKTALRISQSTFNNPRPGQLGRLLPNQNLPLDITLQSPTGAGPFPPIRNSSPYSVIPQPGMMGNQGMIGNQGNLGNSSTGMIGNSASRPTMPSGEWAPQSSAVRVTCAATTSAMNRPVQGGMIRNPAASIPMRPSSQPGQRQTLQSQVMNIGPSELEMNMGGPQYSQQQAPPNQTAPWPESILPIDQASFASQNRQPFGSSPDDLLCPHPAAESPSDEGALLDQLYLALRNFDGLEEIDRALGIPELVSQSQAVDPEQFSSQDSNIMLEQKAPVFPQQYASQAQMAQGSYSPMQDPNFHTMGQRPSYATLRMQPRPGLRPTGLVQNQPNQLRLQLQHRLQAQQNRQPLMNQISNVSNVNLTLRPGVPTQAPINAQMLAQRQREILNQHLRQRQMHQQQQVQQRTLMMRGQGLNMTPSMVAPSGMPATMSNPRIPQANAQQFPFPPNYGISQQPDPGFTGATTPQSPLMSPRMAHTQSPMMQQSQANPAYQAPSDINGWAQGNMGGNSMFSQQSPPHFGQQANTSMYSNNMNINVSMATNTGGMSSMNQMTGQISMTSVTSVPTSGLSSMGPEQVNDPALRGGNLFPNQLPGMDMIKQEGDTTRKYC

Vero = assay: cells; assay type: functional; details: Chlorocebus sabaeus
[6] = tested on: Streptococcus sp. 'group A'; assay: growth inhibition of control SK(-) GAS strain, dose response, counter-screen for streptokinase expression inhibitor project, luminescence, kanamycin, BacTiterGlo, confirmation (AID 1900); assay type: functional, organism-based
Streptococcus = assay: Group A Streptococcus viability loss, dose response, counter-screen for streptokinase expression inhibitor project, luminescence, BacTiterGlo (AID 1915); assay type: functional, organism-based;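 note: potency for reduction of bacterial viability or growth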
Streptokinase A = target: T4, Streptokinase A (Streptococcus pyogenes serotype M1, UniProt P10520); assay: S. pyogenes streptokinase expression inhibitors, potency, dose response, plasminogen activation absorbance, OD405 (AID 1914); assay type: functional, Streptococcus pyogenes M1 GAS;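 note: secreted streptokinase activity via plasminogen activation per viability signal from cell pellet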
T4 sequence (P10520 whole entry): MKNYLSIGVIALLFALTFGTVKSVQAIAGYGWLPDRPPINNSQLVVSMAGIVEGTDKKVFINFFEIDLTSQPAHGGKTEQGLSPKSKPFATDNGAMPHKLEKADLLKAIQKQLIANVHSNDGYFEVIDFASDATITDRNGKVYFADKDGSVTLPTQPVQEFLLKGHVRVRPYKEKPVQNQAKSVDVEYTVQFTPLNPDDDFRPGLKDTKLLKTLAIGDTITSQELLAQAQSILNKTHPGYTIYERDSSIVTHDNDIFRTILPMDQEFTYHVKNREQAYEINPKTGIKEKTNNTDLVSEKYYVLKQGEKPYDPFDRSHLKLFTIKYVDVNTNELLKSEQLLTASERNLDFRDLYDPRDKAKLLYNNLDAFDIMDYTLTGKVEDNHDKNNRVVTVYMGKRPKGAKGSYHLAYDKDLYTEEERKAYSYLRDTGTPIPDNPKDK

[7] = target: Lysosomal acid glucosylceramidase (Homo sapiens, UniProt P04062); assay: Dose response cell-based high throughput screening assay to identify enhancers of beta-glucosidase activity. [Related pubchem assays: 784 ]; assay type: functional
Lysosomal acid glucosylceramidase, sequence (P04062 whole entry): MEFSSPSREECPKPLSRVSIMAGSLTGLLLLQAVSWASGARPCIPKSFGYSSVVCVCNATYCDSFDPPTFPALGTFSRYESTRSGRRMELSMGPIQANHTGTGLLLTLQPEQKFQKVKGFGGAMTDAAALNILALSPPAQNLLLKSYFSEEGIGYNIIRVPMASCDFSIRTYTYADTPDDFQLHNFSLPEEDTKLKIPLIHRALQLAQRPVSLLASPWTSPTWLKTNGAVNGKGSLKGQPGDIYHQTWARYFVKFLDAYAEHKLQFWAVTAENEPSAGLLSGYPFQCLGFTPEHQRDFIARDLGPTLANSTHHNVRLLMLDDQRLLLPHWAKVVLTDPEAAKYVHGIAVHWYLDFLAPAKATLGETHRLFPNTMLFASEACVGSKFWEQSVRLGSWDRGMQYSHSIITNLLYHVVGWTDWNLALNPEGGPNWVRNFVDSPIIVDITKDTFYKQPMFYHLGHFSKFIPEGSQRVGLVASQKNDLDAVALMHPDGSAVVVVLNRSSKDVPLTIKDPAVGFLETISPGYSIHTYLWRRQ

[8] = cytotoxicity toward NIH3T3 fibroblasts, dose response, counter-screen, cell-based, ATP luminescence, mouse fibroblasts (AID 2010); assay type: functional;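 note: cells exposed to compound for about 90 hours before reading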
[9] = growth suppression of beta-catenin-knockout colon cells, dose response, cell-based, HCT116, human colon tumor (AID 1045); assay type: functional;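 note: HCT116 colon tumor cells with beta catenin knocked out; cells exposed to compound for 60 hours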
[10] = inhibitors of intracellular T. cruzi replication, confirmation, NIH3T3 host cells, beta-gal luminescence (AID 2044); assay type: functional, cell-based;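 note: intracellular parasites grown in NIH/3T3 mouse fibroblasts as host cells; luminescent beta-galactosidase reporter signal from transgenic T. cruzi replicating inside host cells; inhibitors lower the luminescence signal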
[11] = growth suppression of PTEN-null colon cells, dose response, cell-based, HCT116 PTEN knockout (AID 1047); assay type: functional;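 note: HCT116 colon tumor cells with PTEN knocked out; cells exposed to compound for 60 hours before readout; potency for loss of cell viability measured by luminescence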

Structure (SMILES): COc1ccc(C(N)CCc2ccc(C)o2)cc1 (stereo not given)
- IC50 (Bcl-2-like protein 10): > 50 µM (inactive)
- IC50 (Estrogen receptor beta [1]): 6.8 µM (active)
- IC50 (Estrogen receptor beta [2]): 93.7 µM (not active)

Structure (SMILES): CCC1(C)NC(=O)N(CC(=O)Nc2sc3c(c2C(N)=O)CCC3)C1=O (stereo not given)
- IC50 (Estrogen receptor): 18.2 µM (active)
- IC50 (Estrogen receptor beta [2]): 0.0325 µM (not active)

Structure (SMILES): CC1CCN(S(=O)(=O)c2ccc(C(=O)Nc3sccc3C(N)=O)cc2)CC1
- EC50 [3]: 79.2 µM (not active)
- EC50 [4]: 71.2 µM (not active)
- EC50 [5]: 145 µM (not active)

Structure (SMILES): CC(C)Cn1c(N)c(C(=O)NCc2cccs2)c2nc3ccccc3nc21
- CC50 (Vero): 14 µM (active)
- EC50 [6]: 3.56 µM (active)
- EC50 (Streptococcus): 7.88 µM (active)
- EC50 (Streptokinase A): 30.2 µM (active)
- EC50 [7]: 2.49 µM (active)
- EC50 [8]: > 60 µM (not active)
- EC50 [9]: 47 µM (active)
- EC50 [10]: 2.17 µM (active)
- EC50 [11]: 36 µM (active)

Structure (SMILES): COc1ccccc1C(=O)Nc1ccccn1
- EC50 [3]: > 79.4 µM (not active)
- EC50 [4]: > 79.4 µM (not active)
- EC50 [5]: > 79.4 µM (not active)
